Results as given in patent US20250162979A1, “P-DIPHENYL COMPOUND DERIVATIVE MIXTURE AND METHOD OF PRODUCING THE SAME” (HODOGAYA CHEMICAL CO., LTD., priority 2021, published 2025).

Assay: Solubility in organic solvent, checked visually at room temperature
Format: physicochemical
Details: room temperature (25±5° C.), stirred 3 to 5 minutes, visual check, % (w/w)

## Cc1ccc(N(c2ccccc2)c2ccc(-c3ccc(N(c4ccccc4)c4ccc(C)cc4)cc3)cc2)cc1 [A-1, 4,4′-bis(4-methyldiphenylamino)-p-diphenyl]
10 g tetrahydrofuran
  Solubility in THF: 49.9%
10 g toluene
  Solubility in toluene: 24.2%
